According to patent US12312301B2, “Organosulfur compounds” (MARIPOSA THERAPEUTICS LTD., priority 2018, dated 2025):

Experiments:
Type in all cases: cell-based
[1] = tested on: Pseudomonas aeruginosa biofilm formation; assay: Minimum Biofilm Inhibition Concentration (MBIC) assay, crystal violet biofilm mass; conditions: for P. aeruginosa MBIC: % of Ajoene positive control IC50: IC50 relative to ajoene run in the same experiment, <100% = more effective than ajoene
Method: (§1) Compounds were assayed for their ability to inhibit S. aureus or P. aeruginosa biofilm formation as follows. All compounds were prepared as a 30 mM stock in DMSO and diluted in TSB to 48 μM (S. aureus) or 144 μM (P. aeruginosa). The compounds were further serially diluted two-fold from 48 μM to 0.75 μM (S. aureus) or 144 μM to 2.3 μM (P. aeruginosa) and added to a 96-well plate at 100 μl per well. Overnight cultures of bacteria were diluted to an OD600=0.07 in fresh TSB and 100 μl of the diluted bacterial culture was added to the compound containing wells. The bacteria were incubated in the presence of the compounds overnight at 37° C. After incubation, the planktonic bacteria were removed by three washes using H2O and the remaining biofilm was stained using crystal violet and quantified photometrically at A570. Absorbances corresponding to biofilm mass were plotted versus compound concentration and IC50 values were calculated. Reference: O'Toole GA. Microtiter Dish Biofilm Formation Assay. J. Vis. Exp. (2011).
(§2) MBIC assays of the compounds are carried out alongside ajoene for reference and standardization. The 1050 of ajoene against S. aureus and P. aeruginosa is well-defined and reproducible allowing ajoene to serve as an effective control for the experiment. As such, the 1050 calculated for the tested compounds are compared to the 1050 of ajoene in every experiment and are therefore represented as % of ajoene.
(§3) The compound and the other biofilm inhibitory agents were assayed for their inhibitory activity using the MBIC method as described in Example 4. Absorbances corresponding to biofilm mass were plotted versus concentration of compound and other biofilm inhibitory agents.

[2] = tested on: Staphylococcus aureus biofilm formation; assay: as above; conditions: for S. aureus MBIC: % of Ajoene positive control IC50: IC50 relative to ajoene run in the same experiment, <100% = more effective than ajoene
Method: as §1, §2, §3

[3] = tested on: HaCaT cells; assay: Scratch closure test; conditions: 5 μM, HaCaT monolayer; for scratch closure observed at 20 h: in line with EGF positive control; for scratch closure compared to vehicle control: P<0.0001 vs 1% DMSO vehicle
Method: HaCaT cells (aneuploidy immortal keratinocyte cell line) were seeded in a 96-well plate at a cell density of 5×10^4 cells per well and incubated overnight at 37° C., 5% CO2 and 95% humidity. Test and control compounds were prepared in 1% DMSO and diluted to a concentration of 5 μM in pre-warmed HaCaT cell media. Cells were washed with pre-warmed PBS and the monolayers mechanically injured by introducing a vertical cell-free area in each individual well, and washed again. Test and control compounds were added and all wells microscopically imaged for time point 0. Cells were incubated as described above and imaged after 20 hours. All conditions were tested with an N of 4 replicates. Scratch closure was analysed using ImageJ software and standard deviation calculated. Scratch closure area reduction was plotted using GraphPrism 8 software.

Structure (SMILES) | P. aeruginosa MBIC: % of Ajoene positive control IC50 [1] | S. aureus MBIC: % of Ajoene positive control IC50 [2] | further results
C=CCSSC=CCS(=O)(=O)Cc1ccc(OC)cc1 | 87 % of Ajoene | 4 % of Ajoene | –
C=CCSSC=CCS(=O)(=O)Cc1ccc(S(C)(=O)=O)cc1 | 82 % of Ajoene | 23 % of Ajoene | –
C=CCSSC=CCS(=O)(=O)Cc1ccc(F)cc1 | 49.2 % of Ajoene | 7 % of Ajoene | –
COc1ccc(CSSC=CCS(=O)(=O)Cc2ccccc2)cc1 | 56 % of Ajoene | 75 % of Ajoene | –
COc1ccc(CSS/C=C/CS(=O)(=O)Cc2ccc(C(F)(F)F)cc2)cc1 | 27.8 % of Ajoene | 8.2 % of Ajoene | –
COC(=O)c1ccc(CSS/C=C/CS(=O)(=O)Cc2ccc(C(F)(F)F)cc2)cc1 | 34.7 % of Ajoene | 20.5 % of Ajoene | –
C=CCSS/C=C/CS(=O)(=O)Cc1ccc(C(F)(F)F)cc1 | 78.7 % of Ajoene | 55.5 % of Ajoene | –
COc1ccccc1CSSC=CCS(=O)(=O)Cc1ccc(C(F)(F)F)cc1 | 13.9 % of Ajoene | 51 % of Ajoene | –
COc1cccc(CSSC=CCS(=O)(=O)Cc2ccc(C(F)(F)F)cc2)c1 | 65.3 % of Ajoene | 20 % of Ajoene | –
COc1ccc(CSSC=CCS(=O)(=O)Cc2ccc(C(F)(F)F)cc2)cc1 | 79 % of Ajoene | 24 % of Ajoene | –
O=S(=O)(CC=CSSCC1CC1)CC1CC1 | 57.5 % of Ajoene | 69.18 % of Ajoene | –
C=CCSSC=CCS(=O)(=O)Cc1ccco1 | 11.7 % of Ajoene | 21.9 % of Ajoene | –
C=CCSSC=CCS(=O)(=O)Cc1cccs1 | 29.7 % of Ajoene | 52 % of Ajoene | –
C=CCSS/C=C/C[S+]([O-])CC=C (stereo not shown) [E-ajoene] | – | – | scratch closure observed at 20 h [3]: complete scratch closure; scratch closure compared to vehicle control [3]: enhanced scratch closure
COc1ccc(CSS/C=C\CS(=O)(=O)Cc2ccc(C(F)(F)F)cc2)cc1 [Test compound 3] | – | – | scratch closure observed at 20 h [3]: complete scratch closure; scratch closure compared to vehicle control [3]: enhanced scratch closure
O=S(=O)(CC=CSSCc1ccc(C(F)(F)F)cc1)Cc1ccc(C(F)(F)F)cc1 [drawing 50] | 45.3 % of Ajoene | 28.6 % of Ajoene | –
C=CCSSC=CCS(=O)(=O)Cc1ccc(C(F)(F)F)cc1 [drawing 51] | 42.75 % of Ajoene | 38.6 % of Ajoene | –
C[S+]([O-])CCCCN=C=S (stereo not shown) [sulforaphane] | – | – | scratch closure observed at 20 h [3]: complete scratch closure; scratch closure compared to vehicle control [3]: enhanced scratch closure
O=S(=O)(CC=CSSCc1ccc(C(F)(F)F)cc1)Cc1ccc(C(F)(F)F)cc1 [test compound 1, 1-(trifluoromethyl)-4-{[(3-{[4-(trifluoromethyl)phenyl]methanesulfonyl}prop-1-en-1-yl)disulfanyl]methyl}benzene] | – | – | IC50 against Pseudomonas aeruginosa biofilm compared to ajoene ([1]; Example 4, FIG. 2, 144 μM to 2.3 μM, overnight 37° C.): lower 1050 than ajoene; IC50 against Staphylococcus aureus biofilm compared to ajoene ([2]; Example 4, FIG. 1, 48 μM to 0.75 μM, overnight 37° C.): lower 1050 than ajoene
C=CCSSC=CCS(=O)(=O)Cc1ccc(C(F)(F)F)cc1 [test compound 2, 1-{[-3-(prop-2-en-1-yldisulfanyl)prop-2-ene-1-sulfonyl]methyl}-4-(trifluoromethyl)benzene] | – | – | inhibitory activity on P. aeruginosa biofilm compared to ajoene, cysteamine, gallium nitrate, HDMF, and C-30 ([1]; Example 6, FIG. 3): improved inhibitory activity; inhibitory activity on S. aureus biofilm compared to ajoene, cysteamine, gallium nitrate, HDMF, and C-30 ([2]; Example 6, FIG. 4): improved inhibitory activity
